Test results taken from patent publication US20050209157A1, “Short bioactive peptides and methods for their use” (priority 2001, published 2005).
Read-outs that look alike come from different tables or passages of the source. No end group written: not given here.

Experiments:
[1] = in vitro; type: cell-based, human; conditions: human, human red blood cells, pH 7, hemolytic assay, concentration at 50% hemolysis, 1 hour at 37° C.; read-out: LD50
[2] = system: BMKC; assay: Anti-cancer assay, MTT, LD50; type: cell-based; conditions: BMKC cloned melanoma line, 24 hours with peptide
Excerpt: (§1) Numbers are LD50 values (μg/mL).

[3] = system: PC3; assay: Anti-cancer assay, MTT, LD50; type: cell-based; conditions: 24 hours with peptide, prostate adenocarcinoma
Excerpt: as §1

[4] = system: H1299; assay: Anti-cancer assay, MTT, LD50; type: cell-based; conditions: 24 hours with peptide, lung large cell carcinoma
Excerpt: as §1

[5] = system: SW480; assay: Anti-cancer assay, MTT, LD50; type: cell-based; conditions: SW480 colon adenocarcinoma line, 24 hours with peptide
Excerpt: as §1

[6] = system: MCF7; assay: Anti-cancer assay, MTT, LD50; type: cell-based; conditions: MCF7 breast adenocarcinoma line, MTT, 24 hours with peptide
Excerpt: as §1

[7] = system: HeLaS3; assay: Anti-cancer assay, MTT, LD50; type: cell-based; conditions: 24 hours with peptide, cervical carcinoma
Excerpt: as §1

[8] = system: yeast (Saccharomyces cerevisiae); assay: Antimicrobial assay I, yeast assay in RPMI 1640; type: cell-based; conditions: RPMI 1640 media
[9] = system: Staphylococcus aureus ATCC 6538; assay: Antimicrobial assay I, MIC by OD measurement; type: cell-based; conditions: 37° C. for 24 hours, absorbance 620 nm
[10] = system: Pseudomonas aeruginosa ATCC 9027; assay: Antimicrobial assay I, MIC by OD measurement; type: cell-based; conditions: 37° C. for 24 hours, absorbance 620 nm
[11] = in vitro; conditions: human, WI38 normal lung fibroblast cells, 24 hours with peptide
[12] = system: WI38; conditions: MTT, 24 hours with peptide; normal fibroblast line
[13] = system: P. aeruginosa; type: cell-based, Pseudomonas aeruginosa; conditions: P. aeruginosa H744; MIC of nalidixic acid with peptide at ¼ MIC
Experimental: (§2) The synergistic effects of the inventive peptides with either chloramphenicol or nalidixic acid against efflux mutants of Pseudomonas aeruginosa were investigated. The MIC values were determined for either nalidixic acid or chloramphenicol alone as baselines. Peptides were added at their ¼ MIC concentration, and the concentration of either nalidixic acid or chloramphenicol to arrive at the MIC was determined. […] The fractional inhibitory concentration (FIC) index was used to determine synergy between peptides and antibiotics. Two-fold serial dilutions of antibiotic were tested in the presence of a constant amount of peptide, equal to one quarter of peptide MIC. The FIC index was determined as follows: FIC=0.25+MICantibiotic in combination/MICantibiotic alone. An FIC index of 0.5 or less is considered as synergy.

[14] = system: P. aeruginosa H374; type: cell-based, Pseudomonas aeruginosa; conditions: for MIC Cm-comb.: MIC of chloramphenicol with peptide at ¼ MIC; for MIC Nal-comb.: MIC of nalidixic acid with peptide at ¼ MIC; for FIC Index: 0.5 or less = synergy
Experimental: as §2

[15] = system: P. aeruginosa H774; type: cell-based, Pseudomonas aeruginosa; conditions: P. aeruginosa H744; nalidixic acid + peptide at ¼ MIC; 0.5 or less = synergy
Experimental: as §2

[16] = system: E. coli UB1005; type: cell-based, Escherichia coli; conditions: mean of three; 16 to 20 hours at 35° C.; in µg/mL
[17] = system: S. typhimurium 14028S; type: cell-based, Salmonella typhimurium; conditions: mean of three; 16 to 20 hours at 35° C.; in µg/mL
[18] = system: P. aeruginosa H374; type: cell-based, Pseudomonas aeruginosa; conditions: mean of three; 16 to 20 hours at 35° C.
[19] = LD50 WI38, WI38 normal lung fibroblast line, MTT
[20] = chloramphenicol + peptide at ¼ MIC
[21] = nalidixic acid + peptide at ¼ MIC, FIC=0.25+MIC comb/MIC alone

Row | Substance | HC50 at 1 h [1] [µg/mL] | LD50 BMKC [2] [µg/mL] | PC3 LD50 [3] [µg/mL] | H1299 LD50 [4] [µg/mL] | LD50 SW480 [5] [µg/mL] | LD50 MCF7 [6] [µg/mL] | HeLaS3 LD50 [7] [µg/mL] | yeast (MIC or MFC) [8] | staph6538 (MIC) [9] [mg/L] | paerug9027 (MIC) [10] [mg/L] | CC50 at 24 h [11, 19] [mg/L] | WI38 LD50 [12] [µg/mL] | MIC Nal-comb. [13] [mg/L] | MIC Cm-comb. [14] [mg/L] | MIC Nal-comb. [14] [mg/L] | FIC Index [14, 20] | FIC Index [14, 21] | FIC Index [15] | also measured
1 | KTKLFKKFAKKLAKKLKKLAKKL-OH [P80] | 900 | 76 | 28 | 64 | 35 | 29 | 97 | 100 mg/L | 10 | 100 | 28 | 28 | 624 | 4 | 2500 | 0.5 | 0.75 | 1.25 | –
2 | FAKKLAKKLKKLAKKLAK-OH [P71] | – | 445 | 270 | 320 | 250 | 190 | 570 | 200 mg/L | 15 | 15 | 355 | 355 | 624 | 8 | 2500 | 0.75 | 0.75 | 1.25 | E. coli UB1005 MIC [16]: 2; S. typhimurium 14028S MIC [17]: 8; P. aeruginosa H374 MIC [18]: 4 mg/L
3 | FAKLLAKALKLKL-NH2 [P101] | 550 | 160 | 730 | 340 | 170 | 250 | 170 | 100 mg/L | 10 | 25 | 300 | 300 | 624 | 16 | 5000 | 1.25 | 1.25 | 1.25 | –
4 | FALALKALKKLKKALKKAL-NH2 [P27] | 125 | 44 | – | – | 26 | 14 | – | 25 mg/L | 10 | 10 | 37 | – | – | – | – | 0.75 | 0.25 | 1.25 | CC50 at 24 h ([11]; WI38 LD50, MTT, normal fibroblast line): 520 mg/L
5 | KLALKLALKALKAAKLA-NH2 [P150] | 650 | 190 | 74 | 185 | 235 | 160 | 320 | > (> indicates greater than 200 μg/mL) | 100 | 10 | 125 | 125 | 312 | 8 | 1250 | 0.75 | 0.5 | 0.75 | –
